From PubChem BioAssay AID330 (DTP/NCI, 2004)
“And” between values parts separate entries of the source, which are not always exact repeats. Equal values may be shown once. Inconclusive results and toxic doses are left out.

System: P388 leukemia ip, CD2F1 mice, survival T/C
Assay: NCI In Vivo Anticancer Drug Screen. Data for tumor model P388 Leukemia (intraperitoneal) in CD2F1 (CDF1) mice
Details: endpoint: median survival time, higher = longer survival
Method in brief: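 Mice carrying the transplanted tumor received test compound or vehicle. Survival was recorded in each group, and the value is the treated-group measurement divided by that of the vehicle-treated control group.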

[1] = dose: 25.0 mg/kg/injection, schedule: Q01DX009 (ip), vehicle: saline with Tween-80
[2] = dose: 50.0 mg/kg/injection, schedule: Q01DX009 (ip), vehicle: saline with Tween-80
[3] = dose: 100.0 mg/kg/injection, schedule: Q01DX009 (ip), vehicle: saline with Tween-80
[4] = dose: 200.0 mg/kg/injection, schedule: Q01DX009 (ip), vehicle: saline with Tween-80
[5] = dose: 50.0 mg/kg/injection, schedule: Q01DX005 (ip), vehicle: saline with Tween-80
[6] = dose: 100.0 mg/kg/injection, schedule: Q01DX005 (ip), vehicle: saline with Tween-80
[7] = dose: 200.0 mg/kg/injection, schedule: Q01DX005 (ip), vehicle: saline with Tween-80
[8] = dose: 6.25 mg/kg/injection, schedule: Q01DX005 (ip), vehicle: saline with Tween-80
[9] = dose: 12.5 mg/kg/injection, schedule: Q01DX005 (ip), vehicle: saline with Tween-80
[10] = dose: 6.25 mg/kg/injection, schedule: Q01DX005 (ip), vehicle: Klucel (hydroxypropylcellulose) (HPC)
[11] = dose: 12.5 mg/kg/injection, schedule: Q01DX005 (ip), vehicle: Klucel (hydroxypropylcellulose) (HPC)
[12] = dose: 60.0 mg/kg/injection, schedule: Q01DX005 (ip), vehicle: saline with Tween-80
[13] = dose: 50.0 mg/kg/injection, schedule: Q01DX005 (ip), vehicle: Klucel (hydroxypropylcellulose) (HPC)
[14] = dose: 100.0 mg/kg/injection, schedule: Q01DX005 (ip), vehicle: Klucel (hydroxypropylcellulose) (HPC)
[15] = dose: 200.0 mg/kg/injection, schedule: Q01DX005 (ip), vehicle: Klucel (hydroxypropylcellulose) (HPC)
[16] = dose: 50.0 mg/kg/injection, schedule: Q01DX009 (ip), vehicle: saline
[17] = dose: 100.0 mg/kg/injection, schedule: Q01DX009 (ip), vehicle: saline
[18] = dose: 200.0 mg/kg/injection, schedule: Q01DX009 (ip), vehicle: saline
[19] = dose: 12.5 mg/kg/injection, schedule: Q01DX009 (ip), vehicle: saline
[20] = dose: 25.0 mg/kg/injection, schedule: Q01DX009 (ip), vehicle: saline

c1ccc2c(C3N4CCCN3CC4)c[nH]c2c1 (configuration not stated)
T/C [1]: 103 % of control and 104 % of control and 119 % of control | T/C [2]: 98 % of control and 106 % of control and 118 % of control | T/C [3]: 103 % of control and 114 % of control and 122 % of control | T/C [4]: 105 % of control and 95 % of control

CC(C)OC(=O)Nc1ccc2nc(-c3cscn3)[nH]c2c1
T/C [5]: 110 % of control | T/C [6]: 114 % of control and 121 % of control | T/C [7]: 151 % of control | T/C (dose: 400.0 mg/kg/injection, schedule: Q01DX005 (ip), vehicle: saline with Tween-80): 180 % of control

COC(=O)/C=C/N(Cc1ccccc1)/N=N/N(/C=C/C(=O)OC)Cc1ccccc1
T/C [8]: 101 % of control | T/C [9]: 95 % of control | T/C (dose: 25.0 mg/kg/injection, schedule: Q01DX005 (ip), vehicle: saline with Tween-80): 97 % of control | T/C [7]: 87 % of control

C#CC1CC2C3CCC4=CC(=O)CCC4(C)C3CCC2(C)C1N(C)C (configuration not stated)
T/C [10]: 99 % of control | T/C [11]: 102 % of control | T/C (dose: 25.0 mg/kg/injection, schedule: Q01DX005 (ip), vehicle: Klucel (hydroxypropylcellulose) (HPC)): 96 % of control

O=[N+]([O-])c1cccc(Cl)c1C(Nc1nncs1)Nc1nncs1
T/C (dose: 60.0 mg/kg/injection, schedule: Q01DX005 (ip), vehicle: Klucel (hydroxypropylcellulose) (HPC)): 96 % of control | T/C (dose: 120.0 mg/kg/injection, schedule: Q01DX005 (ip), vehicle: Klucel (hydroxypropylcellulose) (HPC)): 106 % of control | T/C (dose: 240.0 mg/kg/injection, schedule: Q01DX005 (ip), vehicle: Klucel (hydroxypropylcellulose) (HPC)): 118 % of control

O=C(N/N=C/c1ccccc1[OH2+])c1ccncc1.O=S(=O)([O-])[O-].[Fe+2]
T/C (dose: 100.0 mg/kg/injection, schedule: Q01DX001 (ip), vehicle: Klucel (hydroxypropylcellulose) (HPC)): 94 % of control | T/C (dose: 200.0 mg/kg/injection, schedule: Q01DX001 (ip), vehicle: Klucel (hydroxypropylcellulose) (HPC)): 92 % of control

CCC(=O)C(=O)CC1CC(c2ccco2)=Nc2ccccc2S1 (configuration not stated)
T/C [5]: 111 % of control | T/C [6]: 113 % of control | T/C [7]: 102 % of control

CC1C(=O)OC2C1CCC1(C)CCC(=O)C(C)C21 (configuration not stated)
T/C (dose: 100.0 mg/kg/injection, schedule: Q04DX002 (ip), vehicle: saline with Tween-80): 101 % of control

CCOC(=O)N[C@H]1CCc2cc(O)c(OC)c(OC)c2-c2ccc(SC)c(=O)cc21
T/C (dose: 1.25 mg/kg/injection, schedule: Q01DX009 (ip), vehicle: Klucel (hydroxypropylcellulose) (HPC)): 120 % of control | T/C (dose: 10.0 mg/kg/injection, schedule: Q01DX009 (ip), vehicle: Klucel (hydroxypropylcellulose) (HPC)): 109 % of control

CC(C)c1ccc(O)c(=O)cc1
T/C [1]: 99 % of control | T/C [2]: 102 % of control | T/C [3]: 114 % of control

O=C1OC(OCC#CCOC2OC(=O)C(Cl)=C2Cl)C(Cl)=C1Cl (configuration not stated)
T/C (dose: 15.0 mg/kg/injection, schedule: Q01DX005 (ip), vehicle: saline with Tween-80): 112 % of control | T/C (dose: 30.0 mg/kg/injection, schedule: Q01DX005 (ip), vehicle: saline with Tween-80): 105 % of control | T/C [12]: 115 % of control and 93 % of control

CCS/C(=C/[P+](c1ccccc1)(c1ccccc1)c1ccccc1)SC
T/C [8]: 101 % of control

O=C(O)CNCCCCCCNCC(=O)O
T/C (dose: 50.0 mg/kg/injection, schedule: Q01DX005 (ip), vehicle: saline): 98 % of control | T/C (dose: 100.0 mg/kg/injection, schedule: Q01DX005 (ip), vehicle: saline): 103 % of control | T/C (dose: 200.0 mg/kg/injection, schedule: Q01DX005 (ip), vehicle: saline): 106 % of control

CC(=O)O[C@H]1C(=O)[C@]2(C)[C@@H](OC(C)=O)CC3OC[C@@]3(OC(C)=O)[C@H]2[C@H](OC(=O)c2ccccc2)[C@]2(O)C[C@H](OC(=O)[C@H](O)[C@@H](NC(=O)c3ccccc3)c3ccccc3)C(C)=C1C2(C)C (some centres not stated)
T/C (dose: 2.5 mg/kg/injection, schedule: Q01DX005 (ip), vehicle: DMSO): 100 % of control | T/C (dose: 5.0 mg/kg/injection, schedule: Q01DX005 (ip), vehicle: DMSO): 111 % of control

O=C1c2ccccc2C(=O)N1OCc1ccccc1[N+](=O)[O-]
T/C [13]: 102 % of control | T/C [14]: 101 % of control | T/C [15]: 90 % of control

O=C(Nc1cccc(C(F)(F)F)c1)Nc1nccs1
T/C (dose: 25.0 mg/kg/injection, schedule: Q01DX009 (ip), vehicle: Klucel (hydroxypropylcellulose) (HPC)): 100 % of control | T/C (dose: 50.0 mg/kg/injection, schedule: Q01DX009 (ip), vehicle: Klucel (hydroxypropylcellulose) (HPC)): 98 % of control | T/C (dose: 100.0 mg/kg/injection, schedule: Q01DX009 (ip), vehicle: Klucel (hydroxypropylcellulose) (HPC)): 97 % of control

C=C1C(=O)OC2/C=C(\C)C3OC3/C=C(/C(=O)OC)C(OC(C)=O)C(OC(=O)C(C)(O)C(C)OC(C)=O)C12 (configuration not stated)
T/C (dose: 1.5 mg/kg/injection, schedule: Q01DX009 (ip), vehicle: Klucel (hydroxypropylcellulose) (HPC)): 114 % of control | T/C (dose: 12.0 mg/kg/injection, schedule: Q01DX009 (ip), vehicle: Klucel (hydroxypropylcellulose) (HPC)): 106 % of control

O=C(CNC(=O)c1ccccc1)N/N=C/c1c(O)ccc2ccccc12
T/C [12]: 95 % of control | T/C (dose: 120.0 mg/kg/injection, schedule: Q01DX005 (ip), vehicle: saline with Tween-80): 93 % of control | T/C (dose: 240.0 mg/kg/injection, schedule: Q01DX005 (ip), vehicle: saline with Tween-80): 101 % of control

CC(CNC(=O)CCOS(C)(=O)=O)NC(=O)CCOS(C)(=O)=O (configuration not stated)
T/C (dose: 12.5 mg/kg/injection, schedule: Q04DX003 (ip), vehicle: saline with Tween-80): 100 % of control | T/C (dose: 50.0 mg/kg/injection, schedule: Q04DX003 (ip), vehicle: saline with Tween-80): 154 % of control | T/C [3]: 154 % of control | T/C (dose: 100.0 mg/kg/injection, schedule: Q04DX003 (ip), vehicle: saline with Tween-80): 150 % of control | T/C [4]: 177 % of control | T/C (dose: 200.0 mg/kg/injection, schedule: Q04DX003 (ip), vehicle: saline with Tween-80): 175 % of control | T/C (dose: 400.0 mg/kg/injection, schedule: Q01DX009 (ip), vehicle: saline with Tween-80): 90 % of control | T/C (dose: 400.0 mg/kg/injection, schedule: Q04DX003 (ip), vehicle: saline with Tween-80): 241 % of control

CC(N)C(=O)O (configuration not stated)
T/C [16]: 115 % of control | T/C [17]: 105 % of control | T/C [18]: 106 % of control

O=C1N=c2ccccc2=C1c1sc(=O)n(Cc2nc3ccccc3[nH]2)c1O
T/C [13]: 102 % of control | T/C [14]: 97 % of control | T/C [15]: 93 % of control

Clc1cc(Cl)c(C[N+]23CN4CN(CN(C4)C2)C3)cc1Cl
T/C (dose: 6.25 mg/kg/injection, schedule: Q01DX009 (ip), vehicle: saline): 102 % of control | T/C [19]: 100 % of control and 107 % of control | T/C [20]: 106 % of control and 109 % of control | T/C [2]: 122 % of control | T/C [16]: 111 % of control and 120 % of control | T/C [17]: 117 % of control

CN1CCC2OC2C1=NC#N (configuration not stated)
T/C [19]: 102 % of control | T/C [20]: 101 % of control | T/C [16]: 105 % of control | T/C [17]: 101 % of control | T/C [18]: 97 % of control

c1cc(-c2nc3ccc(-c4nc5ccc(C6=NCCN6)cc5[nH]4)cc3[nH]2)ccc1C1=NCCN1
T/C [10]: 100 % of control | T/C [11]: 98 % of control | T/C [13]: 88 % of control

NC(=O)N/N=C/Cn1ccc(=O)[nH]c1=O
T/C [13]: 99 % of control | T/C [14]: 97 % of control | T/C [15]: 90 % of control

CC1N(N2C(=O)CS(=O)(=O)C2C)C(=O)CS1(=O)=O (configuration not stated)
T/C [5]: 90 % of control | T/C [6]: 95 % of control | T/C [7]: 89 % of control

CCOC(=O)N1CCN(C(=S)N/N=C(\C)c2ncccn2)CC1
T/C [8]: 123 % of control | T/C [9]: 97 % of control

COCC(CN1CCN(c2ccccc2OC)CC1)OC (configuration not stated)
T/C [19]: 97 % of control | T/C [20]: 98 % of control | T/C [16]: 90 % of control

CC(C)OC(=O)C(C)(C)Oc1ccc(C(=O)c2ccc(Cl)cc2)cc1
T/C [2]: 111 % of control | T/C [3]: 98 % of control | T/C [4]: 97 % of control

O=S1(=O)CC(N2CCCCC2)C2=C(O1)c1ccccc1N(c1ccccc1)C2 (configuration not stated)
T/C [2]: 97 % of control | T/C [3]: 96 % of control | T/C [4]: 97 % of control

CCOC(=O)C1Cc2c(n(C3CCCCC3)c(=O)n(C)c2=O)OC1c1ccccc1 (configuration not stated)
T/C [13]: 100 % of control | T/C [14]: 96 % of control | T/C [15]: 90 % of control
